Measurements reported in patent publication US20180305332A1, “Bispiperidinyl Derivatives as Liver X Receptor Beta Agonists, Compositions, and Their Use” (Merck Sharp & Dohme Corp., priority 2015, published 2018).

How the values were obtained:
[1] = target: T1, GST tagged LXRbeta LBD (ligand binding domain) (Homo sapiens, UniProt P55055); experiment: LanthaScreen TR-FRET Liver X Receptor Coactivator Assay, LXR beta-LBD; type: biochemical; settings: relative to reference T0901317; for EC50: Inflection Point (potency), co-activator recruitment, read-out: LXR beta IP; for Emax / LXR beta act @ max dose (%): activity at max dose (efficacy); for Emax: read-out: LXR beta act @ max dose (%)
T1 construct: purchased Invitrogen pv4658.pps
T1 sequence (P55055 222-460 limits assumed): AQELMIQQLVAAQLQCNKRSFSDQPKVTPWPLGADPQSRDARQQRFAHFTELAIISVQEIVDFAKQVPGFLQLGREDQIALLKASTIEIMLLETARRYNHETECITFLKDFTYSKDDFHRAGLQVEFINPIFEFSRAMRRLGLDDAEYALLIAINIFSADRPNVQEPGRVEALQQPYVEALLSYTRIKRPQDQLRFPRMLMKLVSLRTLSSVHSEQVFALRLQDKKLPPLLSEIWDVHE
Experimental: (§1) Potency (Inflection Point, IP) and efficacy (Emax) are evaluated via compound-induced co-activator recruitment to glutathione-S-transferase (GST) tagged LXRbeta and LXRalpha LBD (ligand binding domain) proteins in relation to reference dual agonist compound T0901317 (N-(2,2,2-Trifluoroethyl)-N-[4-[2,2,2-trifluoro-1-hydroxy-1-(trifluoromethyl)ethyl] phenyl]benzenesulfonamide) using the LanthaScreen™ TR-FRET Liver X Receptor Coactivator Assays according to manufacturer's instructions (Invitrogen catalog number pv4658.pps and pv4655). While running the LanthaScreen™ TR-FRET Liver X Receptor Coactivator Assay, LXR alpha-LBD or LXR beta-LBD was added to ligand test compounds followed by addition of a mixture of a fluorescein-labelled coactivator peptide and terbium-conjugated anti-GST antibody. After an incubation period at room temperature, TR-FRET (time-resolved fluorescence resonance energy transfer) was measured using a filter-based instrument capable of TR-FRET, e.g. PerkinElmer Envision.

[2] = target: T2, GST tagged LXRalpha LBD (ligand binding domain) (Homo sapiens, UniProt Q13133); experiment: LanthaScreen TR-FRET Liver X Receptor Coactivator Assay, LXR alpha-LBD; type: biochemical; settings: relative to reference T0901317; for EC50: Inflection Point (potency), co-activator recruitment, read-out: LXR alpha IP; for Emax / LXR alpha act @ max dose (%): activity at max dose (efficacy); for Emax: read-out: LXR alpha act @ max dose (%)
T2 construct: purchased Invitrogen pv4655
T2 sequence (Q13133 209-447 limits assumed): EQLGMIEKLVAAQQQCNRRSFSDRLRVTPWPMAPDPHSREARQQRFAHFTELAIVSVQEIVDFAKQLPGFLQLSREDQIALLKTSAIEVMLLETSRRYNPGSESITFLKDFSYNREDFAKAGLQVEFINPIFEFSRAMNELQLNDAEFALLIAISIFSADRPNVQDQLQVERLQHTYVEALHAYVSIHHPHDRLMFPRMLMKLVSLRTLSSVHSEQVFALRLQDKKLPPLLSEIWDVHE
Experimental: as §1

| Compound | EC50 [1] [nM] | Emax [1] [%] | EC50 [2] [nM] | Emax [2] [%] | LXR beta act @ max dose (%) [1] [%] | LXR alpha act @ max dose (%) [2] [%] |
| --- | --- | --- | --- | --- | --- | --- |
| CN(C)C(=O)c1ccc(N2CCC(C3CCN(C(=O)C(O)(C(C)(C)C)C(F)(F)F)CC3)CC2)cc1Cl (racemic) [Example A-4, 2-Chloro-4-(1′-(2-hydroxy-3,3-dimethyl-2-(trifluoromethyl)butanoyl)-[4,4′-bipiperidin]-1-yl)-N,N-dimethylbenzamide] | 29 | 104 | 735 | 65 |  |  |
| CC(C)[C@@](O)(C(=O)N1CCC(C2CCN(c3ccc(C(=O)N(C)C)c(Cl)c3)CC2)CC1)C(F)(F)F (single isomer, unassigned) [Example A-2] | 35 | 100 | 1030 | 41 |  |  |
| CC(C)[C@](O)(C(=O)N1CCC(C2CCN(c3ccc(C(=O)N(C)C)c(Cl)c3)CC2)CC1)C(F)(F)F (single isomer, unassigned) [Example A-3] | 63 | 103 | 3550 | 36 |  |  |
| CN(C)C(=O)c1ccc(N2CCC(C3CCN(C(=O)C(O)(C(C)(C)C)C(F)(F)F)CC3)CC2)cc1Cl (single isomer, unassigned) [Example A-6, 2-Chloro-4-(1′-(2-hydroxy-3,3-dimethyl-2-(trifluoromethyl)butanoyl)-[4,4′-bipiperidin]-1-yl)-N,N-dimethylbenzamide] | 24 | 107 | 626 | 70 |  |  |
| CN(C)C(=O)c1ccc(N2CCC(C3CCN(C(=O)C(O)(C(C)(C)C)C(F)(F)F)CC3)CC2)cc1Cl (single isomer, unassigned) [Example A-7, 2-Chloro-4-(1′-(2-hydroxy-3,3-dimethyl-2-(trifluoromethyl)butanoyl)-[4,4′-bipiperidin]-1-yl)-N,N-dimethylbenzamide] | 62 |  | 1400 |  | 93 | 56 |
| CN(C)C(=O)c1ccc(N2CCC(C3CCN(C(=O)C(O)(C4CC4)C(F)(F)F)CC3)CC2)cc1Cl (single isomer, unassigned) [Example A-8, 2-chloro-4-[1′-(2-cyclopropyl-3,3,3-trifluoro-2-hydroxypropanoyl)-4,4′-bipiperidin-1-yl]-N,N-dimethylbenzamide] | 247 | 95 | 1810 | 60 |  |  |
| CN(C)C(=O)c1ccc(N2CCC(C3CCN(C(=O)C(O)(C4CC4)C(F)(F)F)CC3)CC2)cc1Cl (single isomer, unassigned) [Example A-9, 2-chloro-4-[1′-(2-cyclopropyl-3,3,3-trifluoro-2-hydroxypropanoyl)-4,4′-bipiperidin-1-yl]-N,N-dimethylbenzamide] | 116 |  | 1200 |  | 110 | 56 |
| CN(C)C(=O)c1ccc(N2CCC(C3CCN(c4ccccc4C(F)(F)F)CC3)CC2)cc1Cl [Example A106, 2-chloro-N,N-dimethyl-4-{1′-[2-(trifluoromethyl)phenyl]-4,4′-bipiperidin-1-yl}benzamide] | 526 | 91 | 2110 | 27 |  |  |
| CN(C)C(=O)c1ccc(N2CCC(C3CCN(C(=O)OC(C)(C)C)CC3)CC2)cc1Cl [Example A-1, tert-Butyl 1′-(3-chloro-4-(dimethylcarbamoyl)phenyl)-[4,4′-bipiperidine]-1-carboxylate] | 16 | 106 | 748 | 76 |  |  |
| CC(C)CC(O)(C(=O)N1CCC(C2CCN(c3ccc(C(=O)N(C)C)c(Cl)c3)CC2)CC1)C(F)(F)F (centres unmarked) [Example A-5, 2-chloro-4-{1′-[2-hydroxy-4-methyl-2-(trifluoromethyl)pentanoyl]-4,4′-bipiperidin-1-yl}-N,N-dimethylbenzamide] | 51 |  | 869 | 55 | 113 |  |
| CN(C)C(=O)c1ccc(N2CCC(C3CCN(C(=O)C(O)(C4CCC4)C(F)(F)F)CC3)CC2)cc1Cl (centres unmarked) [Example A-10, 2-chloro-4-[1′-(2-cyclobutyl-3,3,3-trifluoro-2-hydroxypropanoyl)-4,4′-bipiperidin-1-yl]-N,N-dimethylbenzamide] | 30 | 109 | 756 | 59 |  |  |
| C#CC(C)(C)C(=O)N1CCC(C2CCN(c3ccc(C(=O)N(C)C)c(Cl)c3)CC2)CC1 [Example A-11, 2-chloro-4-[1′-(2,2-dimethylbut-3-ynoyl)-4,4′-bipiperidin-1-yl]-N,N-dimethylbenzamide] | 512 | 125 | 2100 | 62 |  |  |

Further lines, results first:

| EC50 [1] [nM] | Emax [1] [%] | EC50 [2] [nM] | Emax [2] [%] | LXR beta act @ max dose (%) [1] [%] | LXR alpha act @ max dose (%) [2] [%] | Compound |
| --- | --- | --- | --- | --- | --- | --- |
| 35 | 146 | 625 | 0 |  |  | CN(C)C(=O)c1ccc(N2CCC(C3CCN(C(=O)[C@](O)(c4ccccc4)C(F)(F)C(F)(F)F)CC3)CC2)cc1Cl (single isomer, unassigned) [Example A-20] |
| 61 | 117 | 3000 | 67 |  |  | CC[C@](O)(C(=O)N1CCC(C2CCN(c3ccc(C(=O)N(C)C)c(Cl)c3)CC2)CC1)C(F)(F)F (single isomer, unassigned) [Example A-42] |
| 54 | 128 | 620 | 40 |  |  | CN(C)C(=O)c1ccc(N2CCC(C3CCN(C(=O)[C@@](O)(c4ccccc4)C(F)(F)C(F)(F)F)CC3)CC2)cc1Cl (single isomer, unassigned) [Example A-43] |
| 119 | 100 | 2120 | 19 |  |  | COc1cccc([C@@](O)(C(=O)N2CCC(C3CCN(c4ccc(C(=O)N(C)C)c(Cl)c4)CC3)CC2)C(F)(F)F)c1 (single isomer, unassigned) [Example A-65] |
| 251 | 90 | 2480 | 21 |  |  | COc1cccc([C@](O)(C(=O)N2CCC(C3CCN(c4ccc(C(=O)N(C)C)c(Cl)c4)CC3)CC2)C(F)(F)F)c1 (single isomer, unassigned) [Example A-66] |
| 89 | 91 | 1340 | 17 |  |  | CN(C)C(=O)c1ccc(N2CCC(C3CCN(C(=O)[C@](O)(c4ccccc4)C(F)(F)C(F)(F)F)CC3)CC2)nc1Cl (single isomer, unassigned) [Example B-16] |
| 30 | 130 | 854 | 39 |  |  | CN(C)C(=O)c1ccc(N2CCC(C3CCN(C(=O)[C@@](O)(c4ccccc4)C(F)(F)C(F)(F)F)CC3)CC2)nc1Cl (single isomer, unassigned) [Example B-17] |
| 284 | 88 | 3140 | 33 |  |  | O=C(c1ccc(N2CCC(C3CCN(C(=O)[C@@](O)(c4ccccc4)C(F)(F)F)CC3)CC2)cc1Cl)N1CCCC1 (single isomer, unassigned) [Example E-19] |
| 27 | 115 | 1100 | 61 |  |  | CC(C)C(O)(C(=O)N1CCC(C2CCN(c3ccc(C(=O)N(C)C)c(Cl)n3)CC2)CC1)C(F)(F)F (stereo in doubt) [Example B-5, 2-chloro-6-{1′-[(2R)-2-hydroxy-3-methyl-2-(trifluoromethyl)butanoyl]-4,4′-bipiperidin-1-yl}-N,N-dimethylpyridine-3-carboxamide] |
| 38 | 108 | 1670 | 46 |  |  | CC(C)C(O)(C(=O)N1CCC(C2CCN(c3ccc(C(=O)N(C)C)c(Cl)n3)CC2)CC1)C(F)(F)F (stereo in doubt) [Example B-6, 2-chloro-6-{1′-[(2S)-2-hydroxy-3-methyl-2-(trifluoromethyl)butanoyl]-4,4′-bipiperidin-1-yl}-N,N-dimethylpyridine-3-carboxamide] |
| 48 | 104 | 1970 | 31 |  |  | CN(C)C(=O)c1ccc(N2CCC(C3CCN(C(=O)C(O)(c4ccccc4)C(F)(F)F)CC3)CC2)nc1Cl (stereo in doubt) [Example B-9, 2-chloro-N,N-dimethyl-6-{1′-[(2R)-3,3,3-trifluoro-2-hydroxy-2-phenylpropanoyl]-4,4′-bipiperidin-1-yl}pyridine-3-carboxamide] |
